Results as given in ChEMBL document CHEMBL1201861, “Genomics of Drug Sensitity in Cancer screening data, Wellcome Trust Sanger Institute”.

Tests used:
Assay type in all cases: functional, cell-based
NCI-H187 = assay: cells; conditions: Homo sapiens;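 further: growth inhibition of NCI-H187 cells, read out as cell viability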
Description: SANGER: Inhibition of human NCI-H187 cell growth in a cell viability assay.

YT = assay: cells; conditions: Homo sapiens
Description: SANGER: Inhibition of human YT cell growth in a cell viability assay.

BL-41 = assay: cells; conditions: Homo sapiens;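 further: growth inhibition of human BL-41 cells, read out with a cell viability assay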
Description: SANGER: Inhibition of human BL-41 cell growth in a cell viability assay.

RL = assay: cells; conditions: Homo sapiens
Description: SANGER: Inhibition of human RL cell growth in a cell viability assay.

NCI-H1436 = assay: cells; conditions: Homo sapiens;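 further: growth suppression of human NCI-H1436 cells, determined with a cell viability readout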
Description: SANGER: Inhibition of human NCI-H1436 cell growth in a cell viability assay.

REH = assay: cells; conditions: Homo sapiens;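 further: growth inhibition of REH cells determined with a cell viability read-out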
Description: SANGER: Inhibition of human REH cell growth in a cell viability assay.

NCI-H1694 = assay: cells; conditions: Homo sapiens;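 further: cell viability assay measuring inhibition of growth in human NCI-H1694 cells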
Description: SANGER: Inhibition of human NCI-H1694 cell growth in a cell viability assay.

SK-MM-2 = assay: cells; conditions: Homo sapiens;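 further: growth inhibition of human SK-MM-2 cells, read out with a cell viability assay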
Description: SANGER: Inhibition of human SK-MM-2 cell growth in a cell viability assay.

EHEB = assay: cells; conditions: Homo sapiens;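 further: growth inhibition of human EHEB cells, read out with a cell viability assay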
Description: SANGER: Inhibition of human EHEB cell growth in a cell viability assay.

NCI-H716 = assay: cells; conditions: Homo sapiens;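 further: growth inhibition of human NCI-H716 cells, measured by a cell viability assay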
Description: SANGER: Inhibition of human NCI-H716 cell growth in a cell viability assay.

SU-DHL-1 = assay: SANGER: Inhibition of human SU-DHL-1 cell growth in a cell viability assay.
MHH-CALL-2 = assay: cells; conditions: Homo sapiens;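 further: growth inhibition of the cell line, read out in a cell viability assay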
Description: SANGER: Inhibition of human MHH-CALL-2 cell growth in a cell viability assay.

BC-3 = assay: cells; conditions: Homo sapiens;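 further: cell viability assay measuring growth inhibition of human BC-3 cells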
Description: SANGER: Inhibition of human BC-3 cell growth in a cell viability assay.

CHP-126 = assay: cells; conditions: Homo sapiens
Description: SANGER: Inhibition of human CHP-126 cell growth in a cell viability assay.

SUP-T1 = assay: cells; conditions: Homo sapiens;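 further: growth inhibition of human SUP-T1 cells, read out as cell viability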
Description: SANGER: Inhibition of human SUP-T1 cell growth in a cell viability assay.

MRK-nu-1 = assay: cells; conditions: Homo sapiens;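 further: cell viability assay measuring growth suppression of human MRK-nu-1 cells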
Description: SANGER: Inhibition of human MRK-nu-1 cell growth in a cell viability assay.

Raji = assay: cells; conditions: Homo sapiens;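 further: cell viability assay measuring inhibition of Raji cell growth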
Description: SANGER: Inhibition of human Raji cell growth in a cell viability assay.

NCCIT = assay: SANGER: Inhibition of human NCCIT cell growth in a cell viability assay.
TUR = assay: cells; conditions: Homo sapiens;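 further: growth inhibition of human TUR cells, read out with a cell viability assay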
Description: SANGER: Inhibition of human TUR cell growth in a cell viability assay.

NCI-H524 = assay: cells; conditions: Homo sapiens;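 further: growth inhibition of human NCI-H524 cells, read out through a cell viability assay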
Description: SANGER: Inhibition of human NCI-H524 cell growth in a cell viability assay.

Measured: IC50

Cc1n[nH]c2ccc(-c3cncc(OC[C@@H](N)Cc4c[nH]c5ccccc45)c3)cc12 [A-443654]
96.3 nM: BL-41
267 nM: CHP-126
464 nM: NCI-H187
104 nM: MRK-nu-1
342 nM: BC-3
509 nM: NCI-H1694
860 nM: NCI-H524
234 nM: NCCIT
797 nM: SU-DHL-1
477 nM: NCI-H1436
402 nM: EHEB
380 nM: Raji
623 nM: SK-MM-2
> 1020 nM: all other assays above

Cc1nc(Nc2ncc(C(=O)Nc3c(C)cccc3Cl)s2)cc(N2CCN(CCO)CC2)n1 [DASATINIB]
291 nM: BL-41
> 1280 nM: all other assays above

Cc1[nH]c(/C=C2\C(=O)Nc3ccc(S(=O)(=O)Cc4c(Cl)cccc4Cl)cc32)c(C)c1C(=O)N1CCC[C@@H]1CN1CCCC1 [PHA-665752]
> 2000 nM: all assays above
